In patent US20090042964A1, “AMINO-5-[SUBSTITUTED-4-(DIFLUOROMETHOXY)PHENYL]-5-PHENYLIMIDAZOLONE COMPOUNDS AS BETA-SECRETASE INHIBITORS” (Wyeth, priority 2007, published 2009):

biological target: human BACE1 (Homo sapiens, UniProt P56817); test: Fluorescent kinetic assay, evaluation of BACE1 binding affinity of test compounds; format: biochemical; settings: 10 nM human BACE1, 25 μM substrate WABC-6, pH 4.5, room temperature; read-out: BACE1 IC50
Procedure, shortened: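 Kinetic fluorescence assay: enzyme added last to inhibitor and substrate mix, reading started immediately; substrate at 100 μM working dilution (25 μL in 100 μL total). Buffer 66.7 mM Na-acetate pH 4.5 with 0.0667% CHAPS for inhibitor and enzyme dilutions; enzyme stock quantified at 280 nm.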

Sequence of human BACE1 (P56817 46-501): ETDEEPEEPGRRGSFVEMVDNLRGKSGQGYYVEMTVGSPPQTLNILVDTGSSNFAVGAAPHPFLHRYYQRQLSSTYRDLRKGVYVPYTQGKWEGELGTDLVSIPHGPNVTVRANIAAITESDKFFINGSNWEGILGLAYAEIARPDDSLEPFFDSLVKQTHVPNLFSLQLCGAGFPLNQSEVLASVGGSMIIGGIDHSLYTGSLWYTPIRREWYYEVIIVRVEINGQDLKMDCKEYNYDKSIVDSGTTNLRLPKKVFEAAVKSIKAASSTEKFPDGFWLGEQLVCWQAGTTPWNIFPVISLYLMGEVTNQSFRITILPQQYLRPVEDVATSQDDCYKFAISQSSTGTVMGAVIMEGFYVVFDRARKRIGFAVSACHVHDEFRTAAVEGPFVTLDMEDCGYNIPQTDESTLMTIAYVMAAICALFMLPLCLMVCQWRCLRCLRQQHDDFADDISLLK

SMILES | IC50 [nM]
CN1C(=O)[C@@](c2ccccc2)(c2ccc(OC(F)F)c(CCCl)c2)N=C1N [Example 144, (5R)-2-Amino-5-[3-(2-chloroethyl)-4-(difluoromethoxy)phenyl]-3-methyl-5-phenyl-dihydro-4H-imidazol-4-one] | > 1000
CC(C)c1cc(C2(c3ccc(F)c(C#CC4CC4)c3)N=C(N)N(C)C2=O)ccc1OC(F)F (stereo not shown) [Example 145, 2-Amino-5-[3-(cyclopropylethynyl)-4-fluorophenyl]-5-[4-(difluoromethoxy)-3-isopropylphenyl]-3-methyl-3,5-dihydro-4H-imidazol-4-one] | < 100
CCc1cc(C2(c3ccc(F)c(C#CC4CC4)c3)N=C(N)N(C)C2=O)ccc1OC(F)F (stereo not shown) [Example 146, 2-Amino-5-[3-(cyclopropylethynyl)-4-fluorophenyl]-5-[4-(difluoromethoxy)-3-ethylphenyl]-3-methyl-3,5-dihydro-4H-imidazol-4-one] | < 100
CCc1cc([C@]2(c3ccc(F)c(C#CC4CC4)c3)N=C(N)N(C)C2=O)ccc1OC(F)F [Example 147, (5R)-2-Amino-5-[3-(cyclopropylethynyl)-4-fluorophenyl]-5-[4-(difluoromethoxy)-3-ethylphenyl]-3-methyl-3,5-dihydro-4H-imidazol-4-one] | < 100
CCc1cc([C@@]2(c3ccc(F)c(C#CC4CC4)c3)N=C(N)N(C)C2=O)ccc1OC(F)F [Example 148, (5S)-2-Amino-5-[3-(cyclopropylethynyl)-4-fluorophenyl]-5-[4-(difluoromethoxy)-3-ethylphenyl]-3-methyl-3,5-dihydro-4H-imidazol-4-one] | 110 to 1000
CCc1cc(C2(c3ccc(F)c(C#CCC(C)C)c3)N=C(N)N(C)C2=O)ccc1OC(F)F (stereo not shown) [Example 149, 2-Amino-5-[4-(difluoromethoxy)-3-ethylphenyl]-5-[4-fluoro-3-(4-methylpent-1-yn-1-yl)phenyl]-3-methyl-3,5-dihydro-4H-imidazol-4-one] | 110 to 1000
CCc1cc([C@]2(c3ccc(F)c(C#CCC(C)C)c3)N=C(N)N(C)C2=O)ccc1OC(F)F [Example 150, (5R)-2-Amino-5-[4-(difluoromethoxy)-3-ethylphenyl]-5-[4-fluoro-3-(4-methylpent-1-yn-1-yl)phenyl]-3-methyl-3,5-dihydro-4H-imidazol-4-one] | < 100
CCc1cc([C@@]2(c3ccc(F)c(C#CCC(C)C)c3)N=C(N)N(C)C2=O)ccc1OC(F)F [Example 151, (5S)-2-Amino-5-[4-(difluoromethoxy)-3-ethylphenyl]-5-[4-fluoro-3-(4-methylpent-1-yn-1-yl)phenyl]-3-methyl-3,5-dihydro-4H-imidazol-4-one] | > 1000
CCc1cc(C2(c3ccc(F)c(C#CCOC)c3)N=C(N)N(C)C2=O)ccc1OC(F)F (stereo not shown) [Example 152, 2-Amino-5-[4-(difluoromethoxy)-3-ethylphenyl]-5-[4-fluoro-3-(3-methoxyprop-1-yn-1-yl)phenyl]-3-methyl-3,5-dihydro-4H-imidazol-4-one] | < 100
CCc1cc(C2(c3ccc(F)c(C#CC(C)C)c3)N=C(N)N(C)C2=O)ccc1OC(F)F (stereo not shown) [Example 153, 2-Amino-5-[4-(difluoromethoxy)-3-ethylphenyl]-5-[4-fluoro-3-(3-methylbut-1-yn-1-yl)phenyl]-3-methyl-3,5-dihydro-4H-imidazol-4-one] | < 100
CCc1cc([C@]2(c3ccc(F)c(C#CC(C)C)c3)N=C(N)N(C)C2=O)ccc1OC(F)F [Example 154, (5R)-2-Amino-5-[4-(difluoromethoxy)-3-ethylphenyl]-5-[4-fluoro-3-(3-methylbut-1-yn-1-yl)phenyl]-3-methyl-3,5-dihydro-4H-imidazol-4-one] | < 100
CCc1cc([C@@]2(c3ccc(F)c(C#CC(C)C)c3)N=C(N)N(C)C2=O)ccc1OC(F)F [Example 155, (5S)-2-Amino-5-[4-(difluoromethoxy)-3-ethylphenyl]-5-[4-fluoro-3-(3-methylbut-1-yn-1-yl)phenyl]-3-methyl-3,5-dihydro-4H-imidazol-4-one] | 110 to 1000
CCc1cc([C@]2(c3ccc(F)c(C#CCOC)c3)N=C(N)N(C)C2=O)ccc1OC(F)F [Example 156, (5R)-2-Amino-5-[4-(difluoromethoxy)-3-ethylphenyl]-5-[4-fluoro-3-(3-methoxyprop-1-yn-1-yl)phenyl]-3-methyl-3,5-dihydro-4H-imidazol-4-one] | < 100
CCc1cc([C@@]2(c3ccc(F)c(C#CCOC)c3)N=C(N)N(C)C2=O)ccc1OC(F)F [Example 157, (5S)-2-Amino-5-[4-(difluoromethoxy)-3-ethylphenyl]-5-[4-fluoro-3-(3-methoxyprop-1-yn-1-yl)phenyl]-3-methyl-3,5-dihydro-4H-imidazol-4-one] | 110 to 1000
CCc1cc(C2(c3cccc(C#CCF)c3)N=C(N)N(C)C2=O)ccc1OC(F)F (stereo not shown) [Example 158, 2-Amino-5-[4-(difluoromethoxy)-3-ethylphenyl]-5-[3-(3-fluoroprop-1-yn-1-yl)phenyl]-3-methyl-3,5-dihydro-4H-imidazol-4-one] | < 100
CCc1cc(C2(c3ccc(F)c(C#CCF)c3)N=C(N)N(C)C2=O)ccc1OC(F)F (stereo not shown) [Example 159, 2-Amino-5-[4-(difluoromethoxy)-3-ethylphenyl]-5-[4-fluoro-3-(3-fluoroprop-1-yn-1-yl)phenyl]-3-methyl-3,5-dihydro-4H-imidazol-4-one] | < 100

SMILES | IC50 [nM]
CCc1cc([C@@]2(c3cccc(C#CCF)c3)N=C(N)N(C)C2=O)ccc1OC(F)F [Example 160, (5R)-2-Amino-5-[4-(difluoromethoxy)-3-ethylphenyl]-5-[3-(3-fluoroprop-1-yn-1-yl)phenyl]-3-methyl-3,5-dihydro-4H-imidazol-4-one] | > 1000
CCc1cc([C@]2(c3cccc(C#CCF)c3)N=C(N)N(C)C2=O)ccc1OC(F)F [Example 161, (5S)-2-Amino-5-[4-(difluoromethoxy)-3-ethylphenyl]-5-[3-(3-fluoroprop-1-yn-1-yl)phenyl]-3-methyl-3,5-dihydro-4H-imidazol-4-one] | < 100
CCc1cc([C@]2(c3ccc(F)c(C#CCF)c3)N=C(N)N(C)C2=O)ccc1OC(F)F [Example 162, (5R)-2-Amino-5-[4-(difluoromethoxy)-3-ethylphenyl]-5-[4-fluoro-3-(3-fluoroprop-1-yn-1-yl)phenyl]-3-methyl-3,5-dihydro-4H-imidazol-4-one] | < 100
CCc1cc([C@@]2(c3ccc(F)c(C#CCF)c3)N=C(N)N(C)C2=O)ccc1OC(F)F [Example 163, (5S)-2-Amino-5-[4-(difluoromethoxy)-3-ethylphenyl]-5-[4-fluoro-3-(3-fluoroprop-1-yn-1-yl)phenyl]-3-methyl-3,5-dihydro-4H-imidazol-4-one] | 110 to 1000
C#Cc1cccc(C2(c3ccc(OC(F)F)c(C4CC4)c3)N=C(N)N(C)C2=O)c1 (stereo not shown) [Example 167, 2-amino-4-(3-cyclopropyl-4-(difluoromethoxy)phenyl)-4-(3-ethynylphenyl)-1-methyl-1H-imidazol-5(4H)-one] | < 100
CC#Cc1cccc(C2(c3ccc(OC(F)F)c(C4CC4)c3)N=C(N)N(C)C2=O)c1 (stereo not shown) [Example 168, 2-amino-4-(3-cyclopropyl-4-(difluoromethoxy)phenyl)-1-methyl-4-(3-(prop-1-ynyl)phenyl)-1H-imidazol-5(4H)-one] | < 100
CCC#Cc1cccc(C2(c3ccc(OC(F)F)c(C4CC4)c3)N=C(N)N(C)C2=O)c1 (stereo not shown) [Example 171, 2-amino-4-(3-(but-1-ynyl)phenyl)-4-(3-cyclopropyl-4-(difluoromethoxy)phenyl)-1-methyl-1H-imidazol-5(4H)-one] | < 100
CCCC#Cc1cccc(C2(c3ccc(OC(F)F)c(C4CC4)c3)N=C(N)N(C)C2=O)c1 (stereo not shown) [Example 172, 2-amino-4-(3-cyclopropyl-4-(difluoromethoxy)phenyl)-1-methyl-4-(3-(pent-1-ynyl)phenyl)-1H-imidazol-5(4H)-one] | 110 to 1000
CC(C)C#Cc1cccc(C2(c3ccc(OC(F)F)c(C4CC4)c3)N=C(N)N(C)C2=O)c1 (stereo not shown) [Example 173, 2-amino-4-(3-cyclopropyl-4-(difluoromethoxy)phenyl)-1-methyl-4-(3-(3-methylbut-1-ynyl)phenyl)-1H-imidazol-5(4H)-one] | < 100
CN1C(=O)C(c2cccc(C#CC3CC3)c2)(c2ccc(OC(F)F)c(C3CC3)c2)N=C1N (stereo not shown) [Example 176, 2-amino-4-(3-cyclopropyl-4-(difluoromethoxy)phenyl)-4-(3-(cyclopropylethynyl)phenyl)-1-methyl-1H-imidazol-5(4H)-one] | < 100
CN1C(=O)C(c2cccc(C#CC(C)(C)O)c2)(c2ccc(OC(F)F)c(C3CC3)c2)N=C1N (stereo not shown) [Example 179, 2-amino-4-(3-cyclopropyl-4-(difluoromethoxy)phenyl)-4-(3-(3-hydroxy-3-methylbut-1-ynyl)phenyl)-1-methyl-1H-imidazol-5(4H)-one] | < 100
COCC#Cc1cccc(C2(c3ccc(OC(F)F)c(C4CC4)c3)N=C(N)N(C)C2=O)c1 (stereo not shown) [Example 180, 2-amino-4-(3-cyclopropyl-4-(difluoromethoxy)phenyl)-4-(3-(3-methoxyprop-1-ynyl)phenyl)-1-methyl-1H-imidazol-5(4H)-one] | < 100
COCCC#Cc1cccc(C2(c3ccc(OC(F)F)c(C4CC4)c3)N=C(N)N(C)C2=O)c1 (stereo not shown) [Example 183, 2-amino-4-(3-cyclopropyl-4-(difluoromethoxy)phenyl)-4-(3-(4-methoxybut-1-ynyl)phenyl)-1-methyl-1H-imidazol-5(4H)-one] | < 100
COCCCC#Cc1cccc(C2(c3ccc(OC(F)F)c(C4CC4)c3)N=C(N)N(C)C2=O)c1 (stereo not shown) [Example 186, 2-amino-4-(3-cyclopropyl-4-(difluoromethoxy)phenyl)-4-(3-(5-methoxypent-1-ynyl)phenyl)-1-methyl-1H-imidazol-5(4H)-one] | < 100
CN1C(=O)C(c2cccc(C3CC3)c2)(c2ccc(OC(F)F)c(C3CC3)c2)N=C1N (stereo not shown) [Example 187, 2-amino-4-(3-cyclopropyl-4-(difluoromethoxy)phenyl)-4-(3-cyclopropylphenyl)-1-methyl-1H-imidazol-5(4H)-one] | 110 to 1000
